From PMC10934261, “Designing Potent Anti-Cancer Agents: Synthesis and Molecular Docking Studies of Thieno[2,3-d][1,2,4]triazolo[1,5-a]pyrimidine Derivatives” (Molecules, 2024)

Columns and labels:
[1] = system: human breast MCF-7 cancer cell line; assay: In vitro cytotoxic screening (MTT assay), MCF-7; type: cell-based; details: for Percentage cytotoxicity on MCF-7: average ± standard deviation; for IC50: Homo sapiens, MCF7, MCF-7, 48 h incubation, mean of three values, read-out: IC50 (Mean ± SD) MCF-7
[2] = system: human colorectal HCT-116 cancer cell line; assay: In vitro cytotoxic screening (MTT assay), HCT-116; type: cell-based; details: for Percentage cytotoxicity on HCT-116: average ± standard deviation
[3] = system: human prostate PC-3 cancer cell line; assay: In vitro cytotoxic screening (MTT assay), PC-3; type: cell-based; details: for Percentage cytotoxicity on PC-3: average ± standard deviation
[4] = system: human skin normal cell line (BJ-1); assay: Cytotoxicity on normal cells (MTT assay), BJ-1; type: cell-based; details: for Percentage cytotoxicity on normal BJ1 human skin fibroblast cell line: average ± standard deviation; for IC50: Homo sapiens, BJ-1 normal skin cells, 48 h incubation, mean of three values, read-out: IC50 (Mean ± SD) BJ-1
Protocol: It can therefore be concluded that 10b presents a safer cytotoxicity profile than 10e.
The cell lines were obtained from Karolinska Center, Department of Oncology and Pathology, Karolinska Institute and Hospital, Stockholm, Sweden. as follows: human breast MCF-7, colorectal HCT-116 and prostate PC-3 cancer cell lines and human skin normal BJ-1 cell line. Exponentially, cells were cultured at a concentration of 10^4 cells/well for 24 h, afterwards fresh medium containing different concentrations of the tested samples was added. Serial two-fold dilution of the tested samples were added using a multichannel pipette. Moreover, all cells were cultivated at 37 °C, 5% CO2 and 95% humidity. Also, incubation of control cells occurred at 37 °C. […] After rinsing the wells using water until stain free, 30% glacial acetic acid was added to all wells with shaking the plates on a Microplate reader (TECAN, Inc.) to measure the absorbance at a wavelength of 490 nm. The cytotoxicity was estimated by IC50 in μM, which is the concentration that inhibits 50% of growth of cancer cells. […]
1.1. In vitro cytotoxic screening
The cell lines were obtained from Karolinska Center, Department of Oncology and Pathology, Karolinska Institute and Hospital, Stockholm, Sweden. as follows: human breast MCF-7, colorectal HCT-116 and prostate PC-3 cancer cell lines and human skin normal BJ-1 cell line. Exponentially, cells were placed in 10^4 cells/ well for 24 h, and then add fresh medium which containing different concentration of the tested sample. Serial two-fold dilution of the tested sample were added using a multichannel pipette. Moreover, all cells were cultivated at 37 °C, 5% CO2 and 95% humidity. Also, incubation of control cells occurred at 37 °C. […]
Rinse the wells using water until no stain. After that, add 30% glacial acetic acid to all wells with shaking plates on Microplate reader (TECAN, Inc.) to measure the absorbance, using a test wavelength of 490 nm. Besides, compare the treated samples with the control cell. The cytotoxicity was estimated by IC50 in (μ M), the concentration that inhibits 50% of growth of cancer cell. […]
The molecular docking simulation of the promising in vitro screened cyclopenta[4,5]thieno[2,3-d][1,2,4]triazolo[1,5-a]pyrimidin-9(6H)-ones 10b and 10e against EGFR and PI3K was done using the Molecular Operating Environment software (MOE-Dock) version 2014.0901. The co-crystallized structures of EGFR and PI3K kinases complexed with their native ligands, erlotinib and quinolone LXX, were downloaded from the protein data bank (PDB codes: 1M17 and 3L54, respectively). All minimizations were performed using MOE until an RMSD gradient of 0.05 kcal∙mol−1Å−1 with MMFF94x force field and the partial charges were automatically calculated. Preparation of the enzyme structures was done for molecular docking using Protonate 3D protocol with the default options in MOE. London dG scoring function and Triangle Matcher placement method were used in the docking protocol. Initially, the original ligands were re-docked into the active binding site of EGFR and PI3K kinases to assess the root-mean-square deviation values. Then, the docking studies of the newly targeted compounds were estimated within the ATP-binding sites after elimination of the co-crystallized […]
Percentage cytotoxicity of 100 µM of the compounds on human tumor cell lines*

| Structure (SMILES) | Percentage cytotoxicity on MCF-7 ([1]; 12.5 µM) [%] | Percentage cytotoxicity on MCF-7 ([1]; 25 µM) [%] | Percentage cytotoxicity on MCF-7 ([1]; 50 µM) [%] | Percentage cytotoxicity on MCF-7 ([1]; 100 µM) [%] | IC50 [1] [µM] | Percentage cytotoxicity on HCT-116 ([2]; 12.5 µM) [%] | Percentage cytotoxicity on HCT-116 ([2]; 25 µM) [%] | Percentage cytotoxicity on HCT-116 ([2]; 50 µM) [%] | Percentage cytotoxicity on HCT-116 ([2]; 100 µM) [%] | Percentage cytotoxicity on PC-3 ([3]; 12.5 µM) [%] | Percentage cytotoxicity on PC-3 ([3]; 25 µM) [%] | Percentage cytotoxicity on PC-3 ([3]; 50 µM) [%] | Percentage cytotoxicity on PC-3 ([3]; 100 µM) [%] | Percentage cytotoxicity on normal BJ1 human skin fibroblast cell line ([4]; 12.5 µM) [%] | Percentage cytotoxicity on normal BJ1 human skin fibroblast cell line ([4]; 25 µM) [%] | Percentage cytotoxicity on normal BJ1 human skin fibroblast cell line ([4]; 50 µM) [%] | Percentage cytotoxicity on normal BJ1 human skin fibroblast cell line ([4]; 100 µM) [%] | IC50 [4] [µM] | melting point [°C] | other results |
| --- | --- | --- | --- | --- | --- | --- | --- | --- | --- | --- | --- | --- | --- | --- | --- | --- | --- | --- | --- | --- |
| O=c1c2c3c(sc2nc2[nH]c(-c4ccc(Br)cc4)nn12)CCC3 [Compound 10b, 2-(4-Bromophenyl)-7,8-dihydro-3H-cyclopenta[4,5]thieno[2,3-d][1,2,4]triazolo[1,5-a]pyrimidin-9(6H)-one] | 30.3±4.3 | 64.4±2.2 | 80.8±2.8 | 86.4±10 | 19.4 ± 0.22 | 6.2±0.9 | 14.3±1.7 | 15.0±2.5 | 24.4±6.6 | 10.9±5.2 | 18.4±1.7 | 22.1±0.6 | 41.4±0.7 | 16.8±8.3 | 34.2±7.4 | 34.6±3.8 | 39.3±7.7 | 222 ± 30 | 268 to 270 | – |
| O=c1c2c3c(sc2nc2[nH]c(-c4c5ccccc5cc5ccccc45)nn12)CCC3 [Compound 10e, 2-(Anthracen-9-yl)-3,6,7,8-tetrahydro-9H-cyclopenta[4,5]thieno[2,3-d][1,2,4]triazolo[1,5-a]pyrimidin-9-one] | 37.9±6.7 | 85.6±3.6 | 97.9±1.2 | 98.3±0.5 | 14.5 ± 0.3 | 0.0±0.005 | 19.0±4.9 | 34.9±2.8 | 86.7±4.4 | 29.6±3.8 | 56.6±1.3 | 64.2±1.1 | 75.9±1.3 | 13.8±2.1 | 44.8±1.9 | 58.1±3.2 | 83.9±1.2 | 34.8 ± 4.5 | 101 to 103 | IC50 ([2]; Homo sapiens, HCT-116, 48 h incubation, mean of three values, read-out: IC50 (Mean ± SD) HCT-116): 57 ± 0.61 µM; IC50 ([3]; Homo sapiens, PC-3, 48 h incubation, mean of three values, read-out: IC50 (Mean ± SD) PC-3): 25.2 ± 0.4 µM |
